Source: patent US20200360465A1, “METHOD OF TREATING LOWER URINARY TRACT SYMPTOMS WITH FEXAPOTIDE TRIFLUTATE” (Nymox Corporation, priority 2019, published 2020)
Marks after values point to notes of the source that are not given here. Where no end group is shown, it is not given here.

Columns and labels:
[1] = tested on: Patients with BPH and who optionally also had LUTS; test: Clinical trial: inability to provide urine volume >125 mL (Qmax unable / Qmax failure) after intraprostatic injection; type: in vivo, human
Method: (§1) Clinical trials were conducted on numerous individuals having BPH, some of whom also had LUTS. All protocols were done in accordance with applicable regulations, and carried out by physicians.
Patients with BPH and who optionally also had LUTS were given an intraprostatic injection of either a) FT 2.5 mg in phosphate buffered saline pH 7.2 (“PBS”) or b) PBS alone, under double-blind conditions by a urologist in an office setting under ultrasound guidance. Patients were followed for 12 months to several years with regular physical examinations, laboratory tests, and evaluations of symptoms. Urinary peak flow (Qmax) was measured by flow meter readings using standard techniques, at baseline, and at 12 months in subjects who were able to urinate adequate volume of urine (>125 mL) to provide a valid test. Subjects who were unable to void >=125 mL despite drinking as much water as they wanted were classified as “Qmax unable.” The numbers of subjects who became Qmax unable was compared in different groups.

[2] = tested on: Patients with BPH and who optionally also had LUTS; test: Clinical trial: deterioration/worsening in urinary peak flow rate (Qmax worsening) after intraprostatic injection; type: in vivo, human
Method: as §1
Patients with BPH and who optionally also had LUTS were given an intraprostatic injection of either a) FT 2.5 mg in phosphate buffered saline pH 7.2 (“PBS”) or b) PBS alone, under double-blind conditions by a urologist in an office setting under ultrasound guidance. Patients were followed for 12 months to several years with regular physical examinations, laboratory tests, and evaluations of symptoms. Urinary peak flow (Qmax) was measured by flow meter readings using standard techniques, at 3 months and at 12 months.

[3] = tested on: prostate glandular epithelial cells; test: In vitro tissue culture genetic array: apoptosis pathway activation; type: cell-based
Source text: FT is a new molecular entity which in vitro stimulates caspase pathways (activation of caspases 7, 8, and 10, caspase recruitment domains 6, 11, and 14, and DIABLO), tumor necrosis factor pathways (activation of TNF1, TNFSF6, TNFSF8, TNFSF9, CD70 ligands, and TNFRSF19L, TNFRSF25, TRAF2, TRAF3, TRAF4, TRAF6 receptors), and BCL pathways (activation of BIK, HRK, BCL2L10 and BCL3) in prostate glandular epithelial cells, based on tissue culture genetic array data. FT selectively causes loss of cell membrane integrity, mitochondrial metabolic arrest, depletion of RNA, DNA lysis and aggregation, and cell fragmentation and cell loss. The apoptotic process leads to typical ultrastructural progressive changes of membranous disruption and swelling, progressively deepening nuclear invaginations with eventual membranous bleb formations and cell death and fragmentation into apoptotic bodies. Histologically, typical apoptotic changes with positive immunohistochemical staining of markers for apoptosis are found throughout the injected areas for up to several weeks after treatment.

[4] = tested on: Patients with BPH and who optionally also had LUTS; test: Clinical trial: nocturia frequency by patient questionnaires after intraprostatic injection; type: in vivo, human
Source text: Improvements in obstructive and irritative symptoms can be measured in accordance with techniques known in the art. For example, uroflowmeters are known to differentiate urine weight change to provide a continuous plot of the flow rate vs. time that is smoothed by internal electronic filtering to permit precise (±5%) measurement of Qmax. Schafer W, et al. “Good urodynamic practices: Uroflowmetry, filling cystometry and pressure-flow studies,” Neurourol Urodynamics, Vol. 21, pp. 261-74 (2002). Nocturia can be measured in a variety of manners, most of which involve patients completing a questionnaire before and after treatment to establish a baseline, and then determine the difference (improvement, lack of improvement, worsening, etc.) from baseline after treatment. Exemplary questionnaires include evaluating the scores from the nocturia question included in the International Prostate Symptom Score (IPSS), assessing the number of nocturnal voids (Boyarsky symptom score), the Madsen-Iversen Symptom Score, and the ICSmale questionnaire. See, e.g., Chartier-Kastler, et al., “The Measurement of Nocturia and its Impact on Quality of Sleep and Quality of Life in LUTS/BPH,” Eur. Urol. Supp., Vol. 5, pp. 3-11 (2006). A preferred method of measuring nocturia is by determining the mean change from baseline of the nocturia question in the IPSS (question 7). Question 7 solicits from the patient how many times over the past month they had to get up to urinate from the time they went to bed until the time they got up—the score ranging from none (score 0) to 5 or more times (score 5).
as §1
Patients with BPH and who optionally also had LUTS were given an intraprostatic injection of either a FT2.5 in 10 mL phosphate buffered saline pH 7.2 (“PBS”) or PBS 10 mL alone, under double-blind conditions by a urologist in an office setting under ultrasound guidance. Patients were followed for 12 months with regular physical examinations, laboratory tests, and evaluations of symptoms. The mean frequency of nocturia in the prior month was recorded in patient questionnaires.

[5] = about 3 months after single dose of FT ≥2.5 mg, vs control

## Fexapotide Triflutate (IDQQVLSRIKLEIKRCL; also: trifluoroacetate salt) [FT]
[1]; 12 months after single intraprostatic dose of 2.5 mg FT, placebo 5.9%
  % of Qmax Unable at 12 months (% of patients with inability to provide urine volume >125 mL): 4.5%
[1]; Qmax at baseline and 12 months, FT 2.5 mg vs PBS
  mean flow rate improvements, FT treated patients versus controls: similar
[1]; [5]
  percent decrease in patients unable to provide urine volume ≥125 ml compared to control: ≈ 10%
[1]; about 3 months after single dose of FT ≥2.5 mg, control 4.3%
  percentage of patients unable to provide a urine volume of ≥125 ml: 3.9%
[2]; 12 months after single intraprostatic dose of 2.5 mg FT, placebo 42%, p = 0.0239
  % of Qmax Worsening at 12 months: 35%
[2]; Qmax at 3 months and 12 months, FT 2.5 mg vs PBS
  flow rate mean improvements, FT treated group versus control group: similar
[2]; [5]
  percent decrease in patients with deterioration/worsening in peak flow rate compared to control: ≈ 5.1%
[2]; about 3 months after single dose of FT ≥2.5 mg, control 37%
  percentage of patients who showed deterioration/worsening in peak flow rate: 35.2%
[3]
  BCL pathways (activation of BIK, HRK, BCL2L10 and BCL3): stimulates
  caspase pathways (activation of caspases 7, 8, and 10, caspase recruitment domains 6, 11, and 14, and DIABLO): stimulates
  tumor necrosis factor pathways (activation of TNF1, TNFSF6, TNFSF8, TNFSF9, CD70 ligands, TNFRSF19L, TNFRSF25, TRAF2, TRAF3, TRAF4, TRAF6 receptors): stimulates
[4]; 12 months after single dose of 2.5 mg FT, vs vehicle control
  improvement in percentage of patients with Nocturia frequency change >0 from baseline to 12 months compared to control: about 36%
[4]; 12 months follow-up, FT 2.5 mg vs PBS
  mean improvement in frequency of nocturia per night, FT treated subjects versus controls: similar
[4]; after 3 months, single dose of FT 2.5 mg, not significantly better than control
  improvement in mean nocturia frequency points improvement from baseline versus control: ~8%
[4]; single intraprostatic dose of 2.5 mg FT, placebo 19.19%, p = 0.0425 vs. Vehicle alone
  % of Patients With Nocturia Frequency Change >0 from Baseline to 12 Months: 14.15%*
